Measured values taken from patent publication US8389027B2 (priority 2008, dated 2013).

What was measured:
[1] = system: Magnaporthe Guy11 on detached barley leaf; format: in vivo, Magnaporthe grisea; conditions: 200 μM
[2] = system: wild-type S. pombe; format: cell-based, Schizosaccharomyces pombe
[3] = system: S. pombe strain expressing M. grisea Abc3 (MBY 2838); format: cell-based, Schizosaccharomyces pombe; conditions: MBY 2838, compound in growth medium
[4] = system: rice or barley leaf tissue; format: in vivo
[5] = system: Zebra fish larvae heart; format: in vivo, Danio rerio; conditions: at 26 (h of treatment); control 12.71
[6] = system: wild-type S. pombe; experiment: Estimation of minimum inhibitory concentration for S. pombe; format: cell-based, Schizosaccharomyces pombe; conditions: different concentrations, 6 h incubation
Procedure: Approximately, 1×10^7 cells/ml from overnight grown culture of MBY 104 was inoculated in 20 ml fresh YES medium in 250 ml flasks. The cells were incubated at 25° C. on a shaker in absence or presence of different concentrations of digoxin. A stock of 1 mM standard glycosides (Sigma Aldrich, USA) was prepared by adding 7.8 mg, 3.9 mg, and 7.28 mg of digoxin, digoxigenin, and ouabain, respectively, in 10 ml of 50% ethanol. A working stock of 200 μM solution was prepared by diluting 1 mM stock with fresh YES medium. Further dilutions were made from this working stock by adjusting total volume with YES to 20 ml. Cell density of untreated or treated wild-type yeast cells was checked in terms of absorbance after every one hour over 5 to 6 generations. Experiments were performed in duplicate each time and confirmed by several biological replicates.
Wild-type S. pombe cells were grown in absence or presence of different concentrations of digoxin, digoxigenin, or ouabain and growth kinetics was studied over 6-8 h.

[7] = system: wild-type M. grisea Guy11 on rice leaf sheath or onion epidermis; format: in vivo, Magnaporthe grisea; conditions: summary statement

For `C[C@H]1O[C@@H](O[C@H]2[C@@H](O)C[C@H](O[C@H]3[C@@H](O)C[C@H](O[C@H]4CC[C@@]5(C)[C@H](CC[C@@H]6[C@@H]5C[C@@H](O)[C@]5(C)[C@@H](C7=CC(=O)OC7)CC[C@]65O)C4)O[C@@H]3C)O[C@@H]2C)C[C@H](O)[C@@H]1O` [digoxin], the “disease symptoms on detached barley leaf” value ([1]; controls symptomatic from day 3) was “failed to elicit any disease symptoms”, the “disease symptoms, leaves inoculated with 100 conidia per droplet” value ([1]; 6 dpi, 100 conidia per droplet) was “did not show any symptoms” and the “severity of disease compared to control leaves” value ([1]; day 6 post inoculation) was “significantly reduced”. For the same molecule, the “cell density (OD600 nm) of S. pombe, growth kinetics” value [2] was “inhibitory effects”, the “effect on S. pombe cells expressing M. grisea Abc3p” value [3] was “did not show any effects” and the “elicitor-like response in the host plants” value ([4]; exogenous application to leaf tissue) was “induced hypersensitive reaction”. For the same molecule, the “H2O2 level as Cerium perhydroxide precipitate (CeCl3 staining, TEM)” value ([4]; treated leaf tissue, 48 h) was “accumulation of Cerium perhydroxide precipitate in the cell wall and cell membrane”, the “state of host cells upon treatment” value ([4]; treated leaf tissue, TEM) was “plasmolysis” and the “heart rate (time taken for 20 beats)” value [5] was 13.79 s. For the same molecule, the “absorbance of treated S. pombe cells” value [6] was “decrease in absorbance in a dose dependent manner” and the “appressorial function of host penetration” value [7] was “blocked appressorial function of host penetration”.
